Measurements from article PMC10140010 (Investigational New Drugs, 2023).
Several values for one entry are separate records, joined by “and”; a condition that tells them apart may be missing. Equal entries are not always repeated.

Legend:
OATP1B3 [1] = experiment: Uptake substrate investigation in HEK293 cells expressing transporter
Excerpt: (§1) The engineered NIH-3T3 (CD74-ROS1 fusion gene) cells was obtained from Nanjing GenScript Biotechnology Co., Ltd. The engineered Ba/F3 (SLC34A2-ROS1 fusion gene) cell line was obtained from Kyinno Biotechnology (Beijing) Co., Ltd. The HCC-78 (SLC34A2-ROS1 fusion gene) cell line was purchased from Shanghai Hongshun Biotechnology Co., Ltd. The engineered NIH-3T3 (CD74-ROS1 fusion gene) cells was obtained from Nanjing GenScript Biotechnology Co., Ltd. The engineered HEK293 cell lines with OATP1B1 (Lot. No ESH6G27), OATP1B3 (Lot. No ESH7G27), OCT2 (Lot. No ESH9G27), OAT1 (Lot. No ESHCG27), OAT3 (Lot. […] No ESHDG27) were purchased from GenoMembrane and validated using the specific substrate for each transporter. All cells were cultured at 37℃ in a 5% CO2 atmosphere. Cell culture reagents were obtained from Life Technologies, Inc. See Supplemental Table 1 for details on the source of the cell lines and the media used.

OATP1B3 [2] = target: T1, OATP1B3 (Homo sapiens, UniProt Q9NPD5); experiment: as above; conditions: for Uptake transport activity, Mean: OATP1B3-293; for Uptake transport activity, Mean / Ratio of uptake transit activity / Uptake transport activity, Net value: Suppl. Table 11; for Ratio of uptake transit activity / Uptake transport activity, Net value: OATP1B3-293 vs MOCK293
T1 sequence (Q9NPD5 1-702): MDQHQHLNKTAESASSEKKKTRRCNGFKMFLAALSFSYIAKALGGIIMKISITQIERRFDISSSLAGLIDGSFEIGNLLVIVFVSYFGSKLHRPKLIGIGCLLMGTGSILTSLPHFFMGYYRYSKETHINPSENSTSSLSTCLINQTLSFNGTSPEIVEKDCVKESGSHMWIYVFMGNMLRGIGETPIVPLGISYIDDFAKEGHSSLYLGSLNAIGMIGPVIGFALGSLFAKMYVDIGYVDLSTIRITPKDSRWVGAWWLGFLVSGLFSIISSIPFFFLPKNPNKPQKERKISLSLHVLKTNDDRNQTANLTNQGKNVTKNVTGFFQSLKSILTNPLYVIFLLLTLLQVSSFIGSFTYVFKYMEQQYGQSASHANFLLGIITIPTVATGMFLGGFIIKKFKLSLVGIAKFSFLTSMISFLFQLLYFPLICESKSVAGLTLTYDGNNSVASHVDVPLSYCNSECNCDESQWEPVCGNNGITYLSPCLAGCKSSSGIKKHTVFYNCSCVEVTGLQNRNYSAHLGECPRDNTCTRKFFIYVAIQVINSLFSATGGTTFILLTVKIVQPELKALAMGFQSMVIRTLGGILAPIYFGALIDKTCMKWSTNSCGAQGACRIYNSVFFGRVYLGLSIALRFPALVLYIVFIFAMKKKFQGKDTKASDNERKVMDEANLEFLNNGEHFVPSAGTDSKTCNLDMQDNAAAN
Excerpt: as §1

[3] = tested on: phosphorylation of ALK, AKT, ERK, STAT3 in NCI-H3122 cells; experiment: Western blot of ALK and downstream signaling phosphorylation; assay type: cell-based, human; conditions: 2 h incubation
Experimental: In general, the cells were exposed to the drug and were harvested for western blot analysis. SDS-PAGE was used to separate the proteins of interest, which were then transferred to a nitrocellulose (NC) filtration membrane and soaked in a blocking solution [5% non-fat dry milk in tris-buffered saline with Tween 20 (TBST)] for 1 h at room temperature. Thereafter, the membrane was probed overnight with primary antibodies at 4℃ and washed three times with TBST. The corresponding secondary antibody diluent was added, incubated at room temperature for 1 h, and washed 3 times with TBST. After adding the enhanced chemiluminescence developer to the NC filtration membrane, it is developed in the imaging system (ChemiDoc™ XRS^+, BIO-RAD). See Supplementary Table 2 for details of the antibodies used.

MATE1 = target: T2, MATE1 (Homo sapiens, UniProt Q96FL8); experiment: in vitro
T2 sequence (Q96FL8 1-570): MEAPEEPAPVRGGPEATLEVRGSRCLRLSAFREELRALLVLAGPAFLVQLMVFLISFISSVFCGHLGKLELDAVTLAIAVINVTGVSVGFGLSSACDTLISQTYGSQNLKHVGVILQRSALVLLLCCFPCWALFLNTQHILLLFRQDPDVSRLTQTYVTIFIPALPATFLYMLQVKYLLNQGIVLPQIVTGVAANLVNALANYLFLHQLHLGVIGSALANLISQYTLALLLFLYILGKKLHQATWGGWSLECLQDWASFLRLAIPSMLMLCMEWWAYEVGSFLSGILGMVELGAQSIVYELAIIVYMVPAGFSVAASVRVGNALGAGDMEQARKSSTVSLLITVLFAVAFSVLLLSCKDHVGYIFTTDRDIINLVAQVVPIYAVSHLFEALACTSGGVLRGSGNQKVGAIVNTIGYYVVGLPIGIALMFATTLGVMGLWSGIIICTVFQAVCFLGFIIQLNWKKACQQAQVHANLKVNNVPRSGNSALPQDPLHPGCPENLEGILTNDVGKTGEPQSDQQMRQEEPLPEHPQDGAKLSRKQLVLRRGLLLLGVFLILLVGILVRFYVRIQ
Experimental: Using a stably transfected cell line of HEK293 expressing transporter OATP1B1, OATP1B3 or OCT2, formal substrate investigation tests were performed for three concentration gradients (30 µM, 3 µM, 0.3 µM) of iruplinalkib.

BSEP = target: T3, BSEP (Homo sapiens, UniProt O95342); experiment: BSEP inhibitor investigation; assay type: in vitro ADME
T3 construct: host or cells: membrane vesicles ('Membrane capsule'), BSEP versus NC control, with ATP or AMP
T3 sequence (O95342 whole entry): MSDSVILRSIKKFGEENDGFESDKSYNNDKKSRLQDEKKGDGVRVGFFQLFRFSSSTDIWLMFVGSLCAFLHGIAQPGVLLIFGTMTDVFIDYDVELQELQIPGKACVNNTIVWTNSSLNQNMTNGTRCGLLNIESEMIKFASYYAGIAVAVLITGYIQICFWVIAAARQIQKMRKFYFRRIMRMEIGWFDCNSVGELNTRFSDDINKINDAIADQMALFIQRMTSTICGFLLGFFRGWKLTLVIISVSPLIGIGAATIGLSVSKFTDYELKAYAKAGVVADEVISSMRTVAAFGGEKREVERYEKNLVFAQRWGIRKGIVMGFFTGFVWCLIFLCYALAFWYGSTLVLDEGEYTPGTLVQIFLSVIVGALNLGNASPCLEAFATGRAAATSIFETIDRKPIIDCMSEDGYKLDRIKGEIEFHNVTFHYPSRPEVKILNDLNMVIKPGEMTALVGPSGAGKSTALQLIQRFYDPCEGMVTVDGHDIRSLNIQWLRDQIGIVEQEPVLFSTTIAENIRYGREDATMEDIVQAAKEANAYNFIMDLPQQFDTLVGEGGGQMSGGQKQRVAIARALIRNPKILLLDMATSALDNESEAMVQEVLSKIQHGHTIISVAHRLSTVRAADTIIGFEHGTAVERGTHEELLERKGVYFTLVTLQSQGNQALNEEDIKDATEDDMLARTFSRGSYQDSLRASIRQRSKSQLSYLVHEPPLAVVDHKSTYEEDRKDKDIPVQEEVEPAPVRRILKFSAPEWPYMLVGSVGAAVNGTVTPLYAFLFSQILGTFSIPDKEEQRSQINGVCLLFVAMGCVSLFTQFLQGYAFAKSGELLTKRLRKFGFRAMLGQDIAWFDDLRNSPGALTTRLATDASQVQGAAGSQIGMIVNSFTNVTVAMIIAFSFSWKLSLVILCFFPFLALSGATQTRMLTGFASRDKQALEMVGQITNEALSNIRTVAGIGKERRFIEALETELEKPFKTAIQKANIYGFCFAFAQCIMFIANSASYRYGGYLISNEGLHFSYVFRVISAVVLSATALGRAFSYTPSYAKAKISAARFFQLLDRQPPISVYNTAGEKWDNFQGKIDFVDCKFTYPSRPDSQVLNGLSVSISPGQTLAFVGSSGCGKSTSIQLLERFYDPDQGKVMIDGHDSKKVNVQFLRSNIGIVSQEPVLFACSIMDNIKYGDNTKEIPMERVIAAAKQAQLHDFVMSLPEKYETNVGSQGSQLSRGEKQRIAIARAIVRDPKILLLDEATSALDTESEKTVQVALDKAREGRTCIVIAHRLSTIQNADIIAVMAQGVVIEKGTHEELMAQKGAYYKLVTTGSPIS

FGFR1 = FGFR1 (Homo sapiens, UniProt P11362); experiment: Z'-LYTE kinase selectivity
Chain of FGFR1 (P11362 22-822): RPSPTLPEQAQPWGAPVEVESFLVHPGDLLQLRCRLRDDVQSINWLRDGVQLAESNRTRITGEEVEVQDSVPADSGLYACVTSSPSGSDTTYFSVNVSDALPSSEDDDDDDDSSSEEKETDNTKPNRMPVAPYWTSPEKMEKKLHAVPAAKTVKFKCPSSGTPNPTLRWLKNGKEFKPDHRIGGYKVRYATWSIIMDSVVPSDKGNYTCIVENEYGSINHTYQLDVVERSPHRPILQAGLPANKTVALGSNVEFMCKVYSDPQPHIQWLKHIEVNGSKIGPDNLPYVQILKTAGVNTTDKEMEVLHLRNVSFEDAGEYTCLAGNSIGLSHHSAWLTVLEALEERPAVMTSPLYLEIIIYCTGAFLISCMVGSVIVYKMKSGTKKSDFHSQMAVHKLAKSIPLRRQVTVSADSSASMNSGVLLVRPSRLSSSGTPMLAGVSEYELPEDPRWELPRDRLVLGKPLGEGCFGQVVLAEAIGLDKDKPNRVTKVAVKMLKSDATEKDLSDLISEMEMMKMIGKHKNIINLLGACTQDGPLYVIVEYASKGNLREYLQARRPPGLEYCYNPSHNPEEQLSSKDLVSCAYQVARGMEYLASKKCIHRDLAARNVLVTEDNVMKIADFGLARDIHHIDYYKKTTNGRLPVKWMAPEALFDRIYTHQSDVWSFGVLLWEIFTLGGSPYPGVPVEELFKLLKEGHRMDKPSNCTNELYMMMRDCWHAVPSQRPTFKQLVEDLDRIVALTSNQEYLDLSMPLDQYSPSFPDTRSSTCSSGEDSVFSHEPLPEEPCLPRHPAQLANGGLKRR

AUR2 = AUR2 (Homo sapiens, UniProt O14965); experiment: Z'-LYTE kinase selectivity; assay type: biochemical
EGFR^L858R/T790M = EGFR^L858R/T790M (Homo sapiens, UniProt P00533, L858R/T790M); experiment: HTRF kinase activity assay
Chain of EGFR^L858R/T790M (P00533 25-1210 T790M/L858R): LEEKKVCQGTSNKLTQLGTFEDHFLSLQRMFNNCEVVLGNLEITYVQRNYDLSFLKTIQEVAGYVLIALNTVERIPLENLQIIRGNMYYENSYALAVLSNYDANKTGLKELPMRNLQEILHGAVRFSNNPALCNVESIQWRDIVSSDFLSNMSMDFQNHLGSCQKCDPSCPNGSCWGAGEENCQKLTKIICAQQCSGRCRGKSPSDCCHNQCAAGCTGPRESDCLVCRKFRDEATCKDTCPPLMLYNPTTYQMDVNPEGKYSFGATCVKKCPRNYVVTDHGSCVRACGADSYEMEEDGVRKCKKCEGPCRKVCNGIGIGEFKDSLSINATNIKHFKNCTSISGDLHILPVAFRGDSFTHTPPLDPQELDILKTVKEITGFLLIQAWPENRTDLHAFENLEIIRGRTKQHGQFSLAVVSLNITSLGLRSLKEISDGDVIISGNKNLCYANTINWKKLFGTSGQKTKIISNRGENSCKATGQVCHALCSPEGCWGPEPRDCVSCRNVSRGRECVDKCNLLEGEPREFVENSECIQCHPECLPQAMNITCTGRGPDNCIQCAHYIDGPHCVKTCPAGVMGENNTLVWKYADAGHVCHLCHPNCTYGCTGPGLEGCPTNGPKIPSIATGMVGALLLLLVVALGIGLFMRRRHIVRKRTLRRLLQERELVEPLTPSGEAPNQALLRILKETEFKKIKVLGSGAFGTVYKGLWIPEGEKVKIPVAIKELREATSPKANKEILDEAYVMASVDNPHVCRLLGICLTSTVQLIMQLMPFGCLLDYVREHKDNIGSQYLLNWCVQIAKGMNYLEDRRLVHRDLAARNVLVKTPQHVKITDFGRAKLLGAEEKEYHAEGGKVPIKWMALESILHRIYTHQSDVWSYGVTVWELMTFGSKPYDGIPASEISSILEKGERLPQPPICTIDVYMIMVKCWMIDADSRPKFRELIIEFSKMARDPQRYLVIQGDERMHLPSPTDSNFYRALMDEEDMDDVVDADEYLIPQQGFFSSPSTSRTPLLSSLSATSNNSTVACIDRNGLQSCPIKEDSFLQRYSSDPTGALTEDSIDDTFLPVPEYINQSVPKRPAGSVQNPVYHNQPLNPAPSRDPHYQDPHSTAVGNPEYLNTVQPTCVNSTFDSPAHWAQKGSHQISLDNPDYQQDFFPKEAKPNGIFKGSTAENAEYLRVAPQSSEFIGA
Experimental: After the kinase proteins, Ulight-peptide species, adenosine triphosphate (ATP), and compound were mixed, the reaction was carried out at room temperature. Reactions were quenched by the addition of ethylene diamine tetraacetic acid buffer containing Eu antibody and XL665-streptavidin at the indicated time points. Plate reading was performed using an Envision (Perkin Elmer, MA, USA) multifunctional microplate reader.

OATP1B3 [4] = experiment: Uptake inhibitor investigation in HEK293 cells expressing transporter; assay type: in vitro ADME
MRP2 = target: T4, MRP2 (Homo sapiens, UniProt Q92887); experiment: MRP2 inhibitor investigation; assay type: in vitro ADME
T4 construct: host or cells: membrane vesicles ('Membrane capsule'), MRP2 versus NC control, with ATP or AMP
T4 sequence (Q92887 whole entry): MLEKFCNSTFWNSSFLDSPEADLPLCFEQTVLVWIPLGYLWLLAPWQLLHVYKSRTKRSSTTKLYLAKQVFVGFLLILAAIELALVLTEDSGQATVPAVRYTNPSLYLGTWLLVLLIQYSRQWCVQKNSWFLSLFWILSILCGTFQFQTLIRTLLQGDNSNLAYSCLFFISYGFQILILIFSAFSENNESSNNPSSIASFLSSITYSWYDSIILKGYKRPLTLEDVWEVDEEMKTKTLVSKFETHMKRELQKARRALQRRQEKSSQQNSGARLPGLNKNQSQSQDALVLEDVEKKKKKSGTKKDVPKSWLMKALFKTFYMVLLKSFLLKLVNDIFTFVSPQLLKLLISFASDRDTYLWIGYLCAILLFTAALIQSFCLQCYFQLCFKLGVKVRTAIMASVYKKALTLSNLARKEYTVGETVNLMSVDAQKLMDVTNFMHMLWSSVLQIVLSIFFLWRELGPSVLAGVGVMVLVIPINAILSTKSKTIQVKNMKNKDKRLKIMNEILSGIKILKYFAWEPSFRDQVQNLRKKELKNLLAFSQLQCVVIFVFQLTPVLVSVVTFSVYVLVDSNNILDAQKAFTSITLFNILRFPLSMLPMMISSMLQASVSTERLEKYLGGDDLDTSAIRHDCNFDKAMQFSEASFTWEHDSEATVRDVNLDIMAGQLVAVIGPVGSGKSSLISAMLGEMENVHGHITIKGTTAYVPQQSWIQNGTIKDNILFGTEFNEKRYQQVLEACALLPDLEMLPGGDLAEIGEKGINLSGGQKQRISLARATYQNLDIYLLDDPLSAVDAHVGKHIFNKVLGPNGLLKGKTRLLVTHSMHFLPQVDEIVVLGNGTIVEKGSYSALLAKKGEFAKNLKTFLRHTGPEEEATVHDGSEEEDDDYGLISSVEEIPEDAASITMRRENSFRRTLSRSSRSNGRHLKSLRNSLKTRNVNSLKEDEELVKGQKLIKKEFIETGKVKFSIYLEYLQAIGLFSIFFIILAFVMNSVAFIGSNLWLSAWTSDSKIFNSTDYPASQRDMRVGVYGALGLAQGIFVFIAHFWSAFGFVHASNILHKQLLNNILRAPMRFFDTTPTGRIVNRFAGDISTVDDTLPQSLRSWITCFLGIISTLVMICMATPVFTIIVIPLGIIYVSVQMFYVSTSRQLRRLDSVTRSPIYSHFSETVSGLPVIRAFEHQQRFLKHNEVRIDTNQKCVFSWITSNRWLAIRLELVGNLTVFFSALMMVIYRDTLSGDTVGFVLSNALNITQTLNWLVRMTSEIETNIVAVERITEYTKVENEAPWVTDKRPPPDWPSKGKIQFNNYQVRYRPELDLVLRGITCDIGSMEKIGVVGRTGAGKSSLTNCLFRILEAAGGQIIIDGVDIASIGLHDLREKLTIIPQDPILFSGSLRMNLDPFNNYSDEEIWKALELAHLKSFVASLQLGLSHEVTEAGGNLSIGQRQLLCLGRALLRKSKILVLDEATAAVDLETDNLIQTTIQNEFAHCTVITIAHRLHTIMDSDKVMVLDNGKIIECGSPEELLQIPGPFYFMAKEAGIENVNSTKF

[5] = MOCK293, test substrate 10 μM, no inhibitor, OATP1B3 pre-test
[6] = OATP1B1-293 (so in the source), test substrate 10 μM, no inhibitor, OATP1B3 pre-test
[7] = transporter cells vs MOCK293, test substrate 10 μM, no inhibitor, OATP1B3 pre-test
[8] = human, HEK293 cells expressing OATP1B3, probe ATV (atorvastatin), 1 μM, read-out: Inhibition rate

## COc1cc(N2CCC3(CCN(C)CC3)CC2)ccc1Nc1ncc(Cl)c(Nc2ccccc2P(C)(C)=O)n1 [Iruplinalkib]
OATP1B3 [1]; MOCK293 (OATP1B3 set), 0.3 μM, Suppl. Table 11
  Uptake transport activity, Mean: 5.902 pmol/mg protein/min
OATP1B3 [1]; MOCK293 (OATP1B3 set), 3 μM, Suppl. Table 11
  Uptake transport activity, Mean: 44.98 pmol/mg protein/min
OATP1B3 [1]; MOCK293 (OATP1B3 set), 30 μM, Suppl. Table 11
  Uptake transport activity, Mean: 484.5 pmol/mg protein/min
OATP1B3 [1]; [5]
  Uptake transport activity, Mean: 230.3 pmol/mg protein/min
  Uptake transport activity, Repeat 1 / Repeat 2: 221.3 pmol/mg protein/min and 239.2 pmol/mg protein/min
OATP1B3 [1]; [6]
  Uptake transport activity, Mean: 327.9 pmol/mg protein/min
  Uptake transport activity, Repeat 1 / Repeat 2: 313.3 pmol/mg protein/min and 342.6 pmol/mg protein/min
OATP1B3 [1]; [7]
  Ratio of uptake transit activity: 1.42
  Uptake transport activity, Net value: 97.7 pmol/mg protein/min
OATP1B3 [2]; 30 µM, 3 µM, 0.3 µM, HEK293
  uptake transport activity ratio, OATP1B3: less than two
OATP1B3 [2]; HEK293
  uptake substrate of OATP1B3: not an uptake substrate
OATP1B3 [2]; 0.3 μM
  Uptake transport activity, Mean: 8.165 pmol/mg protein/min
  Ratio of uptake transit activity: 1.38
  Uptake transport activity, Net value: 2.263 pmol/mg protein/min
OATP1B3 [2]; 3 μM
  Uptake transport activity, Mean: 57.94 pmol/mg protein/min
  Ratio of uptake transit activity: 1.29
  Uptake transport activity, Net value: 12.964 pmol/mg protein/min
OATP1B3 [2]; 30 μM
  Uptake transport activity, Mean: 641.1 pmol/mg protein/min
  Ratio of uptake transit activity: 1.32
  Uptake transport activity, Net value: 156.58 pmol/mg protein/min
[3]
  phosphorylation level of STAT3: not STAT3
  phosphorylation levels of ALK, AKT, ERK: reduced
MATE1
  inhibition at 0.5 μM: 46.4%
  inhibition at 5 μM: 94.5%
  inhibition at 50 μM: 112%
BSEP
  efflux inhibitor of BSEP: not an efflux inhibitor
BSEP; BSEP membrane capsules (membrane vesicles), ATP vs AMP, probe TCA, BSEP, substrate TCA 10 μM, inhibitor 0.1 μM, read-out: Inhibition rate
  inhibition at 0.1 μM: -25.4%
BSEP; BSEP membrane capsules (membrane vesicles), ATP vs AMP, probe TCA, BSEP, substrate TCA 10 μM, inhibitor 0.3 μM, read-out: Inhibition rate
  inhibition at 0.3 μM: -10.7%
BSEP; BSEP membrane capsules (membrane vesicles), ATP vs AMP, probe TCA, BSEP, substrate TCA 10 μM, inhibitor 1 μM, read-out: Inhibition rate
  inhibition at 1 μM: -26.7%
BSEP; BSEP membrane capsules (membrane vesicles), ATP vs AMP, probe TCA, BSEP, substrate TCA 10 μM, inhibitor 3 μM, read-out: Inhibition rate
  inhibition at 3 μM: -11.8%
BSEP; BSEP membrane capsules (membrane vesicles), ATP vs AMP, probe TCA, BSEP, substrate TCA 10 μM, inhibitor 10 μM, read-out: Inhibition rate
  inhibition at 10 µM: -10.5%
BSEP; BSEP membrane capsules (membrane vesicles), ATP vs AMP, probe TCA, BSEP, substrate TCA 10 μM, inhibitor 30 μM, read-out: Inhibition rate
  inhibition at 30 μM: -0.09%
BSEP; BSEP membrane capsules (membrane vesicles), ATP vs AMP, probe TCA, BSEP, substrate TCA 10 μM, inhibitor 100 μM, read-out: Inhibition rate
  inhibition at 100 μM: 26.3%
FGFR1
  IC50: 249 ± 71 nM
AUR2
  IC50: 1080 ± 106 nM
EGFR^L858R/T790M
  IC50: 16.7 ± 8.11 nM
OATP1B3 [4]; HEK293
  inhibition of OATP1B3 uptake activity: can inhibit the uptake activity
OATP1B3 [4]; [8]
  inhibition at 0.5 μM: 7.2%
  inhibition at 5 μM: 15.3%
  inhibition at 50 μM: 41.1%
MRP2
  efflux inhibitor of MRP2: not an efflux inhibitor
MRP2; probe CDCF 5 μM, MRP2, substrate CDCF 5 μM, inhibitor 0.1 μM, read-out: Inhibition rate
  inhibition at 0.1 μM: -7.3%
MRP2; probe CDCF 5 μM, MRP2, substrate CDCF 5 μM, inhibitor 0.3 μM, read-out: Inhibition rate
  inhibition at 0.3 μM: -8.8%
MRP2; probe CDCF 5 μM, MRP2, substrate CDCF 5 μM, inhibitor 1 μM, read-out: Inhibition rate
  inhibition at 1 μM: -4.5%
MRP2; probe CDCF 5 μM, MRP2, substrate CDCF 5 μM, inhibitor 3 μM, read-out: Inhibition rate
  inhibition at 3 μM: -4.2%
MRP2; probe CDCF, MRP2, substrate CDCF 5 μM, inhibitor 10 μM, read-out: Inhibition rate
  inhibition at 10 µM: -3.8%
MRP2; probe CDCF, MRP2, substrate CDCF 5 μM, inhibitor 30 μM, read-out: Inhibition rate
  inhibition at 30 μM: -2.8%
MRP2; probe CDCF, MRP2, substrate CDCF 5 μM, inhibitor 100 μM, read-out: Inhibition rate
  inhibition at 100 μM: -7.3%
